# According to patent US20160347750A1, “DIHYDROPTERIDINONE DERIVATIVES AND USES THEREOF” (Dana-Farber Cancer Institute, Inc., priority 2014, published 2016):
# Where two headings read alike, the source gives them in different places.
# Columns and labels:
# BRD4.1 [1] = biological target: T1, BRD4.1 (Homo sapiens, UniProt O60885); settings: read-out: BRD4.1 (IC50)
# BRD4.1 [2] = biological target: T1, BRD4.1; settings: read-out: ITC (Kd); BRD4.1, ITC at 25 C
# 797 = test: Cellular assay, cell viability by ATPlite, 797 cells; format: cell-based; settings: for IC50: read-out: 797 IC50
# BRD4 [3] = biological target: T2, BRD4 (Homo sapiens, UniProt O60885); test: BRD4 IC50, first listed in Table 2; format: binding; settings: first BRD4 value listed in the cell
# BRDT = BRDT (Homo sapiens, UniProt Q58F21); test: BRDT IC50, Table 2; format: binding
# BRD4 [4] = biological target: T2, BRD4; test: BRD4 IC50, second listed in Table 2; format: binding
# PLK1 = PLK1 (Homo sapiens, UniProt P53350); test: PLK1 kinase IC50, Table 2; format: biochemical
# Sequence of PLK1 (P53350 whole entry): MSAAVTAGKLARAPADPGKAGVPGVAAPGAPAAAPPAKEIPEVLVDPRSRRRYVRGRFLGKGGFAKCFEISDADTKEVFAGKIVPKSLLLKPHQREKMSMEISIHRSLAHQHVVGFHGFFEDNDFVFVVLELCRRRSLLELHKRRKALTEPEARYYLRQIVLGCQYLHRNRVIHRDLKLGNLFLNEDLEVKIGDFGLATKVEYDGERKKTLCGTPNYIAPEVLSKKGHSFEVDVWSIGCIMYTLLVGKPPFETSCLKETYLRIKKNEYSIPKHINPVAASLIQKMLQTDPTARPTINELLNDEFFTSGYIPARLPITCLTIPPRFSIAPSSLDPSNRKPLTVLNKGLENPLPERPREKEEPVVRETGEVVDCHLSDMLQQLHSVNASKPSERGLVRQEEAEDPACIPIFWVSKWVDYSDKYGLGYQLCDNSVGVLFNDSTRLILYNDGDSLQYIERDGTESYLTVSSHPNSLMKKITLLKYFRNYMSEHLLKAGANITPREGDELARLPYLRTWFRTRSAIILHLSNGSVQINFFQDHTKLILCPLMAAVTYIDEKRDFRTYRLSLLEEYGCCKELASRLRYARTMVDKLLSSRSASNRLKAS
# MV411 = test: Cell line IC50, MV411; format: cell-based
# NOMO1 = test: Cell line IC50, NOMO1; format: cell-based
# Kasumi-1 = test: Cell line IC50, Kasumi-1; format: cell-based; settings: Kasumi-1 cell line
# TF-1 = test: Cell line IC50, TF-1; format: cell-based; settings: TF-1 cell line
# MOLM-13 = test: Cell line IC50, MOLM-13; format: cell-based; settings: MOLM-13 cell line
# AURKA = biological target: T3, AURKA (Homo sapiens, UniProt O14965); test: AURKA kinase IC50, Table 2; format: biochemical
# T3 sequence (O14965 1-403): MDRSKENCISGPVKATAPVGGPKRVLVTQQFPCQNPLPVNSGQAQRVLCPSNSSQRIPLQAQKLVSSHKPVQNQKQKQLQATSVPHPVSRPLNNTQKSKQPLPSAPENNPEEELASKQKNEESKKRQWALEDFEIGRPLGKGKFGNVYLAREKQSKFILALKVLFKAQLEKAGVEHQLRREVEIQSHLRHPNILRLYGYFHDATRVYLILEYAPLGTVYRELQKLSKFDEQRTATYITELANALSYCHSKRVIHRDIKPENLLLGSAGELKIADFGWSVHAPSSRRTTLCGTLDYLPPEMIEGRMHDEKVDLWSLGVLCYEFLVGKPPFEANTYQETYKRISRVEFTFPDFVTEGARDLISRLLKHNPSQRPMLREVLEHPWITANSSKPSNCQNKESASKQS
# HL60 = test: cells; settings: Homo sapiens, HL-60, read-out: HL60 (EC50, M)
# [5] = second BRD4 value listed in the cell, read-out: BRD4 IC50
# [6] = Homo sapiens, NOMO-1, NOMO1 cell line
# [7] = Homo sapiens, NOMO1 (NOMO-1) cell line
IC50 (BRD4 [3]) [nM],IC50 (BRDT) [nM],IC50 (BRD4 [4]; [5]) [nM],IC50 (PLK1) [nM],"IC50 (MV411; Homo sapiens, MV4-11) [nM]",IC50 (Kasumi-1; Homo sapiens) [nM],IC50 (TF-1; Homo sapiens) [nM],IC50 (MOLM-13; Homo sapiens) [nM],IC50 (NOMO1; [7]) [nM],Structure (SMILES),"IC50 (797; 797 cell line, Table 2) [nM]",other results
–,–,–,–,–,–,–,–,–,CC[C@@H]1C(=O)N(C)c2cnc(Nc3ccc(C(=O)N[C@H]4CC[C@H](N5CCN(CC6CC6)CC5)CC4)cc3OC)nc2N1C(C)C,–,IC50 (BRD4.1 [1]): 1070 nM; Kd (BRD4.1 [2]): 255 nM
415,1170,720,> 10000,316,1290,5400,1590,–,CC[C@@H]1C(=O)N(C)c2cnc(Oc3ccc(C(=O)NC4CCN(C)CC4)cc3OC)nc2N1C1CCCC1,425,IC50 (NOMO1; [6]): 7400 nM
130,365,247,725,200,339,1580,351,771,CC[C@@H]1C(=O)N(C)c2cnc(N(C)c3ccc(C(=O)NC4CCN(C)CC4)cc3OC)nc2N1C1CCCC1,342,–
112,491,78,19,71.2,74.9,302,114,114,CC[C@@H]1C(=O)N(C)c2cnc(Nc3ccc(C(=O)NC4CCN(C)CC4)cc3OC3CCCC3)nc2N1C1CCCC1,95,–
339,1330,546,–,112,239,806,174,232,CC[C@@H]1C(=O)N(CC)c2cnc(Nc3ccc(C(=O)NC4CCN(C)CC4)cc3OC)nc2N1C1CCCC1,166,–
175,862,228,57.6,–,–,–,–,–,CC[C@@H]1C(=O)N(C)c2cnc(Nc3ccc(C(=O)NC4CCN(C)CC4)cc3OC3CCOCC3)nc2N1C1CCCC1,88,IC50 (MV411): 74.6 nM; IC50 (NOMO1; NOMO1 (NOMO-1) cell line): 491 nM; IC50 (Kasumi-1): 183 nM; IC50 (TF-1): 1160 nM; IC50 (MOLM-13): 111 nM
9170,21100,6300,129,302,1470,6700,341,–,CC[C@@H]1C(=O)Nc2cnc(Nc3ccc(C(=O)NC4CCN(C)CC4)cc3OC)nc2N1C1CCCC1,420,IC50 (NOMO1; [6]): 3200 nM
1620,5370,832,1700,976,–,–,3490,5420,CC[C@@H]1C(=O)N(C)c2cnc(N3CCOc4cc(C(=O)NC5CCN(C)CC5)ccc43)nc2N1C1CCCC1,1940,–
53,213,43,20,86,–,–,137,247,CC[C@@H]1C(=O)N(C)c2cnc(N3CCc4cc(C(=O)NC5CCN(C)CC5)ccc43)nc2N1C1CCCC1,64,–
263,859,188,1870,404,–,–,851,1830,CC[C@@H]1C(=O)N(C)c2ccc(Nc3ccc(C(=O)NC4CCN(C)CC4)cc3OC)nc2N1C1CCCC1,701,–
394,1050,172,> 10000,357,–,–,828,1730,CC[C@@H]1C(=O)N(C)c2ccc(N3CCc4cc(C(=O)NC5CCN(C)CC5)ccc43)nc2N1C1CCCC1,937,–
160,469,78,> 10000,135,–,–,333,728,C[C@@H]1C(=O)N(C)c2ccc(N3CCc4cc(C(=O)NC5CCN(C)CC5)ccc43)nc2N1C1CCCC1,227,–
13500,24500,18800,78,550,–,–,461,775,COc1cc(C(=O)NC2CCN(C)CC2)ccc1Nc1ncc2c(n1)N(C1CCCC1)[C@H](CC(C)C)C(=O)N2C,292,–
92,249,100,> 10000,21,–,–,218,529,COc1cc(C(=O)NC2CCN(C)CC2)ccc1Nc1ccc2c(n1)N(C1CCCC1)[C@H](C)C(=O)N2C,181,–
–,–,–,–,–,–,–,–,–,"Cc1sc2c(c1C)C(c1ccc(Cl)cc1)=N[C@@H](CC(=O)OC(C)(C)C)c1nnc(C)n1-2 [JQ1, reference compound]",92,IC50 (MV411): 65.6 nM; IC50 (NOMO1; NOMO1 (NOMO-1) cell line): 172 nM; IC50 (Kasumi-1): 48.8 nM; IC50 (TF-1): 109 nM; IC50 (MOLM-13): 89.2 nM
–,–,–,–,–,–,–,–,–,CC[C@@H]1C(=O)N(C)c2cnc(Nc3ccc(C(=O)NC4CCN(C)CC4)cc3OC)nc2N1C1CCCC1 [drawing 199],–,"EC50 (797; read-out: 797 (EC50, M)): 1.07e-08 M; EC50 (HL60): 3.65e-08 M"
> 50000,> 50000,–,–,7.1,7.8,–,–,–,C[C@@H](Oc1cc(-n2cnc3ccc(CN4CCN(C)CC4)cc32)sc1C(N)=O)c1ccccc1C(F)(F)F [reference compound],8,TF-1 IC50 (TF-1; result in words): poor convergence

Structure (SMILES),IC50 (BRD4 [3]) [nM],IC50 (BRDT) [nM],IC50 (BRD4 [4]; [5]) [nM],IC50 (PLK1) [nM],"IC50 (MV411; Homo sapiens, MV4-11) [nM]",IC50 (Kasumi-1; Homo sapiens) [nM],IC50 (TF-1; Homo sapiens) [nM],IC50 (MOLM-13; Homo sapiens) [nM],IC50 (NOMO1; [7]) [nM],"IC50 (797; 797 cell line, Table 2) [nM]",other results
CC[C@@H]1C(=O)N(C)c2cnc(Nc3ccc(C(=O)NC4CCN(C)CC4)cc3)nc2N1C1CCCC1,147,688,–,4.1,10,–,–,8.5,29,–,IC50 797: 6 nM; IC50 (BRD4 [4]): 231 nM; IC50 (AURKA): 9360 nM
CC[C@@H]1C(=O)N(C)c2cnc(Nc3ccc(C(=O)NC4CCN(C)CC4)cc3OC)nc2N1C1CCCC1 [drawing 214],–,–,–,–,5.4,9.9,772,8.1,11.9,–,IC50 797: 5 nM
